Source: US4822778A, “Membrane stabilizing phenoxy-piperidine compounds and pharmaceutical compositions employing such compounds” (Aberg; Gunnar, priority 1988, dated 1989)

System: lingomandibular reflex
Test: Interneuronblocking effects, lingomandibular reflex in anesthetized cats
Format: in vivo, cats (female; 2.5-3.5 kg)
Conditions: Felis catus, iv, 0.25 mg/kg bodyweight, read-out: Maximal inhibition
Experimental: 3. Interneuronblocking effects.
Tests were carried out in anesthetized cats (female; 2.5-3.5 kg bodyweight). The effects of the compounds were studied on the lingomandibular reflex, which was provoked by means of electrical stimulation of the tongue. The mandibular reflux was registered from a transducer connected to the mandible. Phenyramidole was tested by the same procedure. As evident from the results shown in Table 8, the compound according to Example 2 of the invention is 10 times as potent as phenyramidole.
Molecule Cc1cccc(C)c1OCC1CCCCN1C.Cl (centres unmarked) [Example 2, N-methyl-2-[(2,6-xyloxy)methyl]-piperidine hydrochloride] has an inhibition at 0.25 mg/kg of 30%.

Same assay, conditions: Felis catus, iv, 0.50 mg/kg bodyweight, read-out: Maximal inhibition
For Cc1cccc(C)c1OCC1CCCCN1C.Cl (centres unmarked) [Example 2, N-methyl-2-[(2,6-xyloxy)methyl]-piperidine hydrochloride], the inhibition at 0.5 mg/kg was 80%.

Same assay, conditions: Felis catus, iv, 1.00 mg/kg bodyweight, read-out: Maximal inhibition
Molecule Cc1cccc(C)c1OCC1CCCCN1C.Cl (centres unmarked) [Example 2, N-methyl-2-[(2,6-xyloxy)methyl]-piperidine hydrochloride] has an inhibition at 1 mg/kg of 100%.

Same assay, conditions: Felis catus, iv, 2.5 mg/kg bodyweight, read-out: Maximal inhibition
OC(CNc1ccccn1)c1ccccc1 (centres unmarked) [Phenyramidole, reference compound] gave an inhibition at 2.5 mg/kg of 40%.

Same assay, conditions: Felis catus, iv, 5.0 mg/kg bodyweight, read-out: Maximal inhibition
Molecule OC(CNc1ccccn1)c1ccccc1 (centres unmarked) [Phenyramidole, reference compound] has an inhibition at 5 mg/kg of 80%.

Same assay, conditions: Felis catus, iv, 10.0 mg/kg bodyweight, read-out: Maximal inhibition
Molecule OC(CNc1ccccn1)c1ccccc1 (centres unmarked) [Phenyramidole, reference compound] has an inhibition at 10 mg/kg of 100%.

Same assay, conditions: i.v., 0.25 mg/kg bodyweight
Work on Cc1cccc(C)c1OCC1CCCCN1C.Cl (centres unmarked) [Example 2, N-methyl-2-[(2,6-xyloxy)methyl]-piperidine hydrochloride] yielded a Duration of inhibition of 10 min.

Same assay, conditions: i.v., 0.50 mg/kg bodyweight
In the case of Cc1cccc(C)c1OCC1CCCCN1C.Cl (centres unmarked) [Example 2, N-methyl-2-[(2,6-xyloxy)methyl]-piperidine hydrochloride], the Duration of inhibition is reported as 20 min.

Same assay, conditions: i.v., 1.00 mg/kg bodyweight
Molecule Cc1cccc(C)c1OCC1CCCCN1C.Cl (centres unmarked) [Example 2, N-methyl-2-[(2,6-xyloxy)methyl]-piperidine hydrochloride] has a Duration of inhibition of 45 min.

Same assay, conditions: i.v., 2.5 mg/kg bodyweight
Work on OC(CNc1ccccn1)c1ccccc1 (centres unmarked) [Phenyramidole, reference compound] yielded a Duration of inhibition of 5 min.

Same assay, conditions: i.v., 5.0 mg/kg bodyweight
For OC(CNc1ccccn1)c1ccccc1 (centres unmarked) [Phenyramidole, reference compound], the Duration of inhibition was 20 min.

Same assay, conditions: i.v., 10.0 mg/kg bodyweight
OC(CNc1ccccn1)c1ccccc1 (centres unmarked) [Phenyramidole, reference compound] showed a Duration of inhibition of 60 min.

Same assay, conditions: i.v., compared with phenyramidole
For Cc1cccc(C)c1OCC1CCCCN1C.Cl (centres unmarked) [Example 2, N-methyl-2-[(2,6-xyloxy)methyl]-piperidine hydrochloride], the “Potency relative to phenyramidole” value was 10 times.

System: not listed separately
Test: in vivo
Conditions: mouse, sc
CCCCN1CCCCC1C(=O)Nc1c(C)cccc1C (centres unmarked) [Bupivacaine, reference compound] gave an LD50 of 50 mg/kg. For Cc1cccc(C)c1OCC1CCCCN1 (centres unmarked) [Example 1, 2-[(2,6-xyloxy)methyl]piperidine], the LD50 was 110 mg/kg. Cc1cccc(C)c1OCC1CCCCN1C.Cl (centres unmarked) [Example 2, N-methyl-2-[(2,6-xyloxy)methyl]-piperidine hydrochloride] gave an LD50 of 260 mg/kg. CC1CCCC(C)C1OCC1CCCCN1 (centres unmarked) [Example 3, 2-[(2,6-dimethylcyclohexyloxy)methyl]piperidine] gave an LD50 of 180 mg/kg. Molecule CC1CCCC(C)C1OCC1CCCCN1C (centres unmarked) [Example 4] has an LD50 of 350 mg/kg. With CCN1CCCCC1COc1c(C)cccc1C (centres unmarked) [Example 5, N-ethyl-2-[(2,6-xyloxy)-methyl]piperidine] the LD50 was 200 mg/kg.

System: sciatic nerve
Test: Nerve blocking effects in rats in vivo
Conditions: 0.25 ml of 0.5% by weight solution
Experimental: B. Nerve blocking effects. The tests were carried out in vivo in rats after injection of 0.25 ml of the test solutions close to the sciatic nerve.
For Cc1cccc(C)c1OCC1CCCCN1 (centres unmarked) [Example 1, 2-[(2,6-xyloxy)methyl]piperidine], the “Nerve blocking effect, Motoric blockade” value was 75 min and the “Nerve blocking effect, Sensoric blockade” value was 90 min. With Cc1cccc(C)c1OCC1CCCCN1C.Cl (centres unmarked) [Example 2, N-methyl-2-[(2,6-xyloxy)methyl]-piperidine hydrochloride] the “Nerve blocking effect, Motoric blockade” value was 110 min and the “Nerve blocking effect, Sensoric blockade” value was 135 min. For CC1CCCC(C)C1OCC1CCCCN1 (centres unmarked) [Example 3, 2-[(2,6-dimethylcyclohexyloxy)methyl]piperidine], the “Nerve blocking effect, Motoric blockade” value was 0 min and the “Nerve blocking effect, Sensoric blockade” value was 0 min. With CC1CCCC(C)C1OCC1CCCCN1C (centres unmarked) [Example 4] the “Nerve blocking effect, Motoric blockade” value was 65 min and the “Nerve blocking effect, Sensoric blockade” value was 80 min. With CCN1CCCCC1COc1c(C)cccc1C (centres unmarked) [Example 5, N-ethyl-2-[(2,6-xyloxy)-methyl]piperidine] the “Nerve blocking effect, Motoric blockade” value was 90 min and the “Nerve blocking effect, Sensoric blockade” value was 115 min.

System: guinea pigs
Test: Infiltration anesthetic effects, intracutaneous injection in guinea pigs
Format: in vivo
Conditions: 0.2 ml of 0.5% by weight solution
Experimental: 1. […] A. Infiltration anesthetic effects: The effects of the new compounds were tested according to Aberg & […], Acta Anaesth.
With Cc1cccc(C)c1OCC1CCCCN1 (centres unmarked) [Example 1, 2-[(2,6-xyloxy)methyl]piperidine] the Infiltration anesthesia duration was 40 min. With Cc1cccc(C)c1OCC1CCCCN1C.Cl (centres unmarked) [Example 2, N-methyl-2-[(2,6-xyloxy)methyl]-piperidine hydrochloride] the Infiltration anesthesia duration was 120 min. With CC1CCCC(C)C1OCC1CCCCN1 (centres unmarked) [Example 3, 2-[(2,6-dimethylcyclohexyloxy)methyl]piperidine] the Infiltration anesthesia duration was 35 min. CC1CCCC(C)C1OCC1CCCCN1C (centres unmarked) [Example 4] gave an Infiltration anesthesia duration of 60 min. In the case of CCN1CCCCC1COc1c(C)cccc1C (centres unmarked) [Example 5, N-ethyl-2-[(2,6-xyloxy)-methyl]piperidine], the Infiltration anesthesia duration is reported as 70 min.

System: ventricular arrhythmias
Test: Antiarrhythmic effects, ouabain-induced ventricular arrhythmias in anesthetized dogs
Format: in vivo
Conditions: i.v., 1 mg/kg
Experimental: 2. Antiarrhythmic effects.
Ventricular arrhythmias were induced in anesthetized dogs by intravenous injection of ouabain: initially 40 μg/kg bodyweight and thereafter 20 μg/kg bodyweight every 20 minutes until the ventricular arrhythmia was regarded as manifest. Lidocaine was also tested by the same procedure. The new compounds were compared with lidocaine, a known antiarrhythmic compound.
For Cc1cccc(C)c1OCC1CCCCN1 (centres unmarked) [Example 1, 2-[(2,6-xyloxy)methyl]piperidine], the Duration of regularization was 5 min. With Cc1cccc(C)c1OCC1CCCCN1C.Cl (centres unmarked) [Example 2, N-methyl-2-[(2,6-xyloxy)methyl]-piperidine hydrochloride] the Duration of regularization was 2 min. For CCN1CCCCC1COc1c(C)cccc1C (centres unmarked) [Example 5, N-ethyl-2-[(2,6-xyloxy)-methyl]piperidine], the Duration of regularization was 3 min.

Same assay, conditions: i.v., 2 mg/kg
In the case of Cc1cccc(C)c1OCC1CCCCN1 (centres unmarked) [Example 1, 2-[(2,6-xyloxy)methyl]piperidine], the Duration of regularization is reported as 10 min. In the case of Cc1cccc(C)c1OCC1CCCCN1C.Cl (centres unmarked) [Example 2, N-methyl-2-[(2,6-xyloxy)methyl]-piperidine hydrochloride], the Duration of regularization is reported as 4 min.

System: cynomolgus monkeys
Test: Spinal anesthetic effects in monkeys, intrathecal injection
Format: in vivo
Conditions: intrathecal 1.0 ml, 3.0% by wt.
Experimental: D. Spinal Anesthetic Effects.
Spinal anesthetsias were performed on cynomolgus monkeys that had been sedated with ketamine (6 mg/kg; i.m.). 1.0 ml of the test solutions were injected intrathecally and the durations were tested every ten (10) minutes with forceps. The duration of motoric blockade was calculated as the time until the hind leg paralysis ceased.
In the case of CCN1CCCCC1COc1c(C)cccc1C (centres unmarked) [Example 5, N-ethyl-2-[(2,6-xyloxy)-methyl]piperidine], the “Duration, Anal Blockade” value is reported as 258 min, the “Duration, Digital Blockade” value is reported as 163 min and the “Duration, Motor Blockade” value is reported as 178 min.

System: rabbit cornea
Test: Topical anesthetic effects, corneal test in rabbits in vivo
Conditions: 0.25 ml, concentration 1.0%
Experimental: C. Topical anesthetic effects. Corneal tests were carried out in rabbits in vivo according to Henn.
In the case of Cc1cccc(C)c1OCC1CCCCN1 (centres unmarked) [Example 1, 2-[(2,6-xyloxy)methyl]piperidine], the “Topical anesthetic effect, Duration” value is reported as 24 ± 4 min and the “Topical anesthetic effect, Onset frequency” value is reported as 9/10. In the case of Cc1cccc(C)c1OCC1CCCCN1C.Cl (centres unmarked) [Example 2, N-methyl-2-[(2,6-xyloxy)methyl]-piperidine hydrochloride], the “Topical anesthetic effect, Duration” value is reported as 14 ± 4 min and the “Topical anesthetic effect, Onset frequency” value is reported as 7/10. For CCN1CCCCC1COc1c(C)cccc1C (centres unmarked) [Example 5, N-ethyl-2-[(2,6-xyloxy)-methyl]piperidine], the “Topical anesthetic effect, Duration” value was 18 ± 3 min and the “Topical anesthetic effect, Onset frequency” value was 9/10.

System: not listed separately
Test: Convulsive and lethal doses in rats, intravenous infusion
Format: in vivo
Conditions: rat, in vivo, iv; male rats, i.v. at 1.0 mg/kg/min; read-out: Convulsive dose
Experimental: (§1) Convulsive doses and lethal doses after intravenous administration for selected compounds of the invention and for Bupivacaine are shown in Table 3 below.
(§2) Convulsive and lethal doses of selected compounds
(§3) administered intravenously at 1.0 mg/kg/min to rats (male;
In the case of CCCCN1CCCCC1C(=O)Nc1c(C)cccc1C (centres unmarked) [Bupivacaine, reference compound], the TD50 is reported as 9 mg/kg. Work on Cc1cccc(C)c1OCC1CCCCN1 (centres unmarked) [Example 1, 2-[(2,6-xyloxy)methyl]piperidine] yielded a TD50 of 22 mg/kg. Cc1cccc(C)c1OCC1CCCCN1C.Cl (centres unmarked) [Example 2, N-methyl-2-[(2,6-xyloxy)methyl]-piperidine hydrochloride] showed a TD50 of 10 mg/kg. With CCN1CCCCC1COc1c(C)cccc1C (centres unmarked) [Example 5, N-ethyl-2-[(2,6-xyloxy)-methyl]piperidine] the TD50 was 15 mg/kg.

System: rats
Test: as above
Format: in vivo
Conditions: male rats, i.v. at 1.0 mg/kg/min
Experimental: as §1, §2, §3
With CCCCN1CCCCC1C(=O)Nc1c(C)cccc1C (centres unmarked) [Bupivacaine, reference compound] the Lethal dose was 13 mg/kg. In the case of Cc1cccc(C)c1OCC1CCCCN1 (centres unmarked) [Example 1, 2-[(2,6-xyloxy)methyl]piperidine], the Lethal dose is reported as 50 mg/kg. With Cc1cccc(C)c1OCC1CCCCN1C.Cl (centres unmarked) [Example 2, N-methyl-2-[(2,6-xyloxy)methyl]-piperidine hydrochloride] the Lethal dose was 33 mg/kg. For CCN1CCCCC1COc1c(C)cccc1C (centres unmarked) [Example 5, N-ethyl-2-[(2,6-xyloxy)-methyl]piperidine], the Lethal dose was 41 mg/kg.
